# From patent US9302012B2, “Anti-bacterial siderophore-aminopenicillin conjugates” (University of Notre Dame Du Lac, priority 2012, dated 2016)
# Test system: collection of strains of P. aeruginosa
# Experiment: Agar well diffusion test (several strains)
# Type: cell-based, Pseudomonas aeruginosa
# Conditions: control samples
# Experimental: Conjugates 10 and 11 were first evaluated for their antibacterial ability against a collection of strains of P. aeruginosa using the agar well diffusion test. The influence of iron concentration on antibacterial activity was probed as well by conducting assays in iron-rich and iron-deficient media.
# All liquids and media were sterilized by autoclaving (121° C., 15 min) before use. All aqueous solutions and media were prepared using distilled, deionized, and filtered water (Millipore Milli-Q Advantage A10 Water Purification System). Luria broth (LB) was purchased from VWR. Mueller-Hinton No. 2 broth (MHII broth; cation adjusted) was purchased from Sigma-Aldrich (St. Louis, Mo.). Iron-deficient (—Fe) MHII broth was prepared by adding 0.8 mL of a 1 mg/mL sterile aq. solution of 2,2′-bipyridine to 49.2 mL of MHII broth. Iron-rich (+Fe) MHII broth was prepared by adding 0.8 mL of a 1 mg/mL sterile aq. solution of FeCl3 to 49.2 mL of MHII broth. Mueller-Hinton No. 2 agar (MHII agar; HiMedia Laboratories) was purchased from VWR. Iron-deficient (−Fe) MHII agar was prepared by adding 0.5 mL of a 1 mg/mL sterile aq. solution of 2,2′-bipyridine to 34 mL of melted MHII agar with gentle mixing. Iron-rich (+Fe) MHII agar was prepared by adding 0.5 mL of a 1 mg/mL sterile aq. solution of FeCl3 to 34 mL of melted MHII agar with gentle mixing. See also Wencewicz, T. A. Dissertation, University of Notre Dame, Notre Dame, Ind., 2011, for relevant techniques.
# Antibacterial Susceptibility Testing by the Agar Diffusion Assay.
# Antibacterial activity of the compounds was determined by a modified Kirby-Bauer agar diffusion assay. Overnight cultures of test organisms were grown in LB broth for 18-24 h and standard suspensions of […] were prepared in saline solution (0.9% NaCl) according to a 0.5 BaSO4 McFarland Standard. This standardized suspension (0.1 mL) was added to 34 mL of sterile, melted agar (−Fe or +Fe) tempered to 47-50° C. After gentle mixing, the inoculated agar media was poured into a sterile plastic petri dish (145 mm×20 mm) and allowed to solidify near a flame with the lid ajar for about 30 min. Wells of 9.0 mm diameter were cut from the petri dish agar and filled with exactly 50 μL of the test sample solution. The petri dish was incubated at 37° C. for 18-24 h and the inhibition zone diameters were measured (mm) with an electronic caliper after 24 h.
row,SMILES,inhibitory effect in the agar well diffusion test
1,CC(=O)Oc1cccc(C(=O)NCCCC(CCCNC(=O)c2cccc(OC(C)=O)c2OC(C)=O)(CCCNC(=O)c2cccc(OC(C)=O)c2OC(C)=O)NC(=O)CCC(=O)N[C@@H](C(N)=O)c2ccccc2)c1OC(C)=O [Compound S1],did not show any inhibitory effect
2,CC(=O)Oc1cccc(C(=O)NCCCC(CCCNC(=O)c2cccc(OC(C)=O)c2OC(C)=O)(CCCNC(=O)c2cccc(OC(C)=O)c2OC(C)=O)NC(=O)CCC(=O)O)c1OC(C)=O [Compound 9],did not show any inhibitory effect
